These results are taken from patent US4758565A, “Substituted pyrimidoquinoxalines useful as anti-anaerobic agents” (G. D. Searle & Co., priority 1986, dated 1988).

Type in all cases: cell-based
One test concerns Peptococcus magnus. As to the kind of experiment: MIC vs panel of anaerobes. Conditions: Finegoldia magna, procedures of Example 11 (mg/L).
Test [1] concerns Propionebacterium acnes NCTC 7337. As to the kind of experiment: MIC vs panel of anaerobes. The settings on record: procedures of Example 11 (mg/L).
A further test deals with B. fragilis NCTC 10581. The test can be described thus: Screening panel of Bacteroides fragilis, MIC and MBC, strain A. The method, then:
The screening panel utilized in this example consisted of 5 strains of Bacteroides fragilis. All assays were carried out in 96-well microtitre plates. If an isolate was obtained from either a culture collection or clinical source, the isolate was immediately inoculated into Wilkins-Chalgren broth (Oxoid) and incubated at 37° C. in an anaerobic chamber in an atmosphere of 85% nitrogen, 10% carbon dioxide, and 5% hydrogen for 48 hours. At the end of this time, the viable count was about […] broth. A 1 ml aliquot of each culture was placed in an ampoule and quick frozen in acetone-dry ice mixture and stored in liquid nitrogen. […] A 2 mg sample of the test compound was dissolved in 0.2 ml of a suitable solvent such as dimethylsulfoxide, polyethylene glycol 200 or methanol. […] After addition of the test solution the final inoculum level was 10^5 cells/ml. The plates were incubated for 48 hours at 37° C. in the anaerobic chamber. The Minimum Inhibitory Concentration (MIC) was read visually. The MIC is defined as the lowest concentration at which there is no detectable growth. The Minimum Bactericidal Concentration (MBC) was determined by taking 50 μ l aliquot from each well and placing it in fresh medium. […] The strains of Bacteroides fragilis utilized in the above procedure are identified by letter in accordance with the following legend: |A B. fragilis NCTC 10581

Regarding `Cc1ccc(C2=[N+]([O-])c3cc(C(F)(F)F)ccc3N3CC(C)(C)CN=C23)cc1` [Example 3, 2,3-Dihydro-2,2-dimethyl-5-(4-methylphenyl)-8-trifluoromethyl-1H-pyrimid [1,2-a]quinoxaline 6-oxide], the MIC in the test with Peptococcus magnus was more than 100 µg/mL; in test [1], more than 100 µg/mL; in the test with B. fragilis NCTC 10581 (NCTC10581, 48 hours at 37° C., anaerobic, read-out: Minimum Inhibitory Concentration (MIC)), less than 0.8 µg/mL. Moreover, the MBC with B. fragilis NCTC 10581 (NCTC10581, less than 5 colonies (99.9% reduction) after 48 hours, read-out: Minimum Bactericidal Concentration (MBC)) is less than 0.8 µg/mL.
